Experiments:
[1] = tested on: TNF-α mRNA in Jurkat cells; test: PHA/PMA-induced TNF-α mRNA in Jurkat cells (RT-PCR); format: cell-based, human; details: 10 μM
Procedure: (§1) Activation of CB2 is known to have anti-inflammatory effects. There are some studies reporting that CB2 agonists decrease cytokine production in immune cells. We also reported that the cannabinoid receptor agonist CP55,940 and ABK5 inhibit cytokine production in the human T cell lines Jurkat and MOLT-4 [24]. Since ABK5-1 and 5-2 were confirmed to be CB2-subtype selective agonists, we were interested to determine whether these compounds also have anti-inflammatory effects. Note, although ABK5-6 had marginally better binding affinity to CB2, it bound to CB1 […] (i.e., micromolar range). Therefore ABK5-6 was not selected for further evaluations. We first tested the change of IL-2 and TNF-α mRNA levels in Jurkat cells. […] To test if these mRNA changes are reflected in the protein levels of cytokines, the IL-2 and TNF-α concentration in the cell culture medium were measured by ELISA. […] Unlike ABK5-1, at 3 h of treatment, the lowest concentration of ABK5-2 used caused the IL-2 mRNA decrease. […] On the other hand, TNF-α mRNA decreased by 45% at 10 μM ABK5-2 after 3 h of treatment (Figure 4E, black columns). […] These mRNA level changes were similar to that of ABK5-1, except ABK5-2 caused a stronger inhibitory effect on expression of TNF-α mRNA. […] Consistent with the mRNA levels, the inhibitory effect of ABK5-2 on TNF-α production was stronger than that of ABK5-1.
Figure 4 Effect of ABK5-1 and ABK5-2 on phytohemagglutinin (PHA)/phorbol 12-myristate 13-acetate (PMA)-induced cytokine production in T cells. Jurkat cells were pretreated with DMSO (<0.1%; indicated as 0 μM) or various concentrations of ABK5-1 (A–D) or ABK5-2 (E–H) and stimulated with PHA and PMA. IL-2 and TNF-α mRNA levels were determined by real-time PCR (RT-PCR) after ABK5-1 treatment and (A) 3 h and (B) 24 h of PHA/PMA (phytohemagglutinin/phorbol 12-myristate 13-acetate) stimulation. Protein levels of (C) IL-2 and (D) TNF-α were also examined after 24 h of stimulation. IL-2 and TNF-α mRNA were also examined after ABK5-2 treatment and (E) 3 h and (F) 24 h of stimulation, and protein levels of (G) IL-2 and (H) TNF-α were measured after 24 h stimulation. […]
(§2) Jurkat cells were lysed and total RNA was extracted using TRIzol Reagent (Life Technologies, Carlsbad, CA, USA) followed by reverse transcription by a High-Capacity cDNA Reverse Transcription kit (Life Technologies, Carlsbad, CA, USA) according to the manufacturer’s instructions. Quantitative real-time PCR was performed using an Applied Biosystems 7500 Fast Real-Time PCR system in a 10 μL reaction volume containing 2 μL diluted cDNA and 0.5 μM each of forward and reverse primers, and PowerUp SYBR Green Master Mix (Life Technologies, Carlsbad, CA, USA). […]

[2] = tested on: IL-2 mRNA in Jurkat cells; test: PHA/PMA-induced IL-2 mRNA in Jurkat cells (RT-PCR); format: cell-based, human
Procedure: as §1
Figure 4 Effect of ABK5-1 and ABK5-2 on phytohemagglutinin (PHA)/phorbol 12-myristate 13-acetate (PMA)-induced cytokine production in T cells. Jurkat cells were pretreated with DMSO (<0.1%; indicated as 0 μM) or various concentrations of ABK5-1 (A–D) or ABK5-2 (E–H) and stimulated with PHA and PMA. IL-2 and TNF-α mRNA levels were determined by real-time PCR (RT-PCR) after ABK5-1 treatment and (A) 3 h and (B) 24 h of PHA/PMA (phytohemagglutinin/phorbol 12-myristate 13-acetate) stimulation. Protein levels of (C) IL-2 and (D) TNF-α were also examined after 24 h of stimulation. IL-2 and TNF-α mRNA were also examined after ABK5-2 treatment and (E) 3 h and (F) 24 h of stimulation, and protein levels of (G) IL-2 and (H) TNF-α were measured after 24 h stimulation. Results are indicated as the mean ± S.D. of three independent assays performed in triplicate for each concentration. One-way ANOVA and Dunnett’s post-hoc test were used and * p < 0.05, ** p < 0.01, *** p < 0.005, **** p < 0.0001 (versus reference).
For cytokine analysis, 0.75 × 10^6 Jurkat cells per well were seeded in 12-well cell culture plates and treated with compounds at a concentration between 0.1 to 10 μM and incubated for 30 min at 37 °C. Then cells were stimulated for cytokine production with PHA (1 μg/mL) and PMA (12.5 ng/mL), for 3 and 24 h. After stimulation, cells were harvested for RNA analysis and the culture supernatant was used for measurement of IL-2 and TNF-α concentrations by human IL-2 and TNF-α ELISA kits (Thermo Fisher Scientific; Waltham, MA, USA) according to the manufacturer instructions.
as §2, with “USA). Primers used in the reaction were as follows: human 36B4 forward, 5′-[…]-3′, and human 36B4 reverse, 5′-[…]-3′, and human IL-2 forward, 5′-[…]-3′, and human IL-2 reverse, 5′-[…]-3′, and human TNF-α forward, 5′-[…]′, human TNF-α reverse, 5′-[…]-3′. The PCR cycles are as follows: 50 °C for 2 min, 95 °C for 2 min, 40 cycles of 95 °C for 3 sec and 60 °C for 30 s.” for “USA).”

[3] = 0.1 μM, 3 h PHA/PMA stimulation

**Q.** For `CCOC(=O)c1ccccc1NC(=O)CN(c1c(C)cccc1C)S(=O)(=O)c1ccccc1` [ABK5-2], which “decrease of TNF-α mRNA” value ([1]; 3 h PHA/PMA stimulation) is on record?
**A.** The value was 45%.

**Q.** What about the “decrease of TNF-α mRNA” value ([1]; 24 h) of the same compound?
**A.** The value was “about 60%”.

**Q.** What about the “decrease of IL-2 mRNA” value [2, 3] of the same compound?
**A.** Its value is “about 20%”.

**Q.** And the “decrease of IL-2 mRNA” value ([2]; 1 μM, 3 h PHA/PMA stimulation)?
**A.** Its value is ~15%.

**Q.** What about the “decrease of IL-2 mRNA” value ([2]; 10 μM, 3 h PHA/PMA stimulation) of the same compound?
**A.** The value was ~46%.

**Q.** And the “decrease of IL-2 mRNA” value ([2]; 10 μM, 24 h)?
**A.** The value was “about 65%”.

**Q.** What does the source list for `CCOC(=O)c1ccccc1NC(=O)CN(c1ccc(C)cc1C)S(=O)(=O)c1ccccc1` [ABK5-1]?
**A.** decrease of TNF-α mRNA ([1]; 3 h PHA/PMA stimulation): 35%; decrease of TNF-α mRNA ([1]; 24 h): 50%; decrease of IL-2 mRNA [2, 3]: did not show a significant decrease; decrease of IL-2 mRNA ([2]; 1 μM, 3 h PHA/PMA stimulation): about 17%; decrease of IL-2 mRNA ([2]; 1 μM, 24 h): about 14%; decrease of IL-2 mRNA ([2]; 10 μM, 3 h PHA/PMA stimulation): ~46%; decrease of IL-2 mRNA ([2]; 10 μM, 24 h): ~67%
